Like-named read-outs stand apart in the source and are kept apart here.
Key:
[1] = target: cdk4/D (Homo sapiens, UniProt P11802); assay: Cyclin-Dependent Kinase 4 (cdk4) Assay; format: biochemical; settings: read-out: cdk4/D IC50
[2] = target: cdk2/cyclinE (Homo sapiens, UniProt P24941); assay: Cyclin-Dependent Kinase Assay cdk2/cyclinE
[3] = target: Cdk5/p25 (Homo sapiens, UniProt Q00535); assay: Cyclin-Dependent Kinase 5 High Throughput Screening (cdk5-HTS) Assay; format: biochemical; settings: high throughput screen
Procedure, shortened: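 Cdk5/p25 (1.0 μg/mL) phosphorylates GST-RbCOOH (20 μg/mL) in 50 mM Tris pH 7.4 with 10 mM MgCl2 and 20 μM ATP spiked with [γ33P]ATP, 30 min at room temperature. After EDTA stop, substrate captured on glutathione-coated plates; 33P incorporation counted by scintillation; IC50 determined.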

[4] = target: cdk2/cyclinA (Homo sapiens, UniProt P24941); assay: Cyclin-Dependent Kinase Assay cdk2/cyclinA
[5] = target: cdc2/cyclinB (Homo sapiens, UniProt P06493); assay: Cyclin-Dependent Kinase Assay cdc2/cyclinB
cdc2/cyclinB, sequence (P06493 whole entry): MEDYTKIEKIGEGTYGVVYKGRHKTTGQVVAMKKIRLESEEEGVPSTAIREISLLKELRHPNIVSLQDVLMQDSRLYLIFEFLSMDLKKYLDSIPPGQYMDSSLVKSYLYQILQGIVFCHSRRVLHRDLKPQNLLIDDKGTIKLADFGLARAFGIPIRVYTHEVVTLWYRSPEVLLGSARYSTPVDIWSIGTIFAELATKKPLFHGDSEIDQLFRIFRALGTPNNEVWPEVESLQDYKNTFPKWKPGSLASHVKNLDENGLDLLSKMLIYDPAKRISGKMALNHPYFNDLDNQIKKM
cdc2/cyclinB, sequence (P14635 whole entry, further chain): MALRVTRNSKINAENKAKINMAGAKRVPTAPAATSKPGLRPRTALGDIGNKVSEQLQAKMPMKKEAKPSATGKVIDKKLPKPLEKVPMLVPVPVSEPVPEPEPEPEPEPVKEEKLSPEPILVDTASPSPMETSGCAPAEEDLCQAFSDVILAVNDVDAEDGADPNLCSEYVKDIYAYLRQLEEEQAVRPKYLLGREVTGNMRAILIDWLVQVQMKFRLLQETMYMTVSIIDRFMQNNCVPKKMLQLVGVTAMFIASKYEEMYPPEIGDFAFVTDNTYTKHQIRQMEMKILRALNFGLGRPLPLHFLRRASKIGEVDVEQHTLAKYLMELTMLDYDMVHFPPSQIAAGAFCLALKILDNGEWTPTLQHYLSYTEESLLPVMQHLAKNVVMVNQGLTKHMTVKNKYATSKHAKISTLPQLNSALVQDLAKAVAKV

cdk4/D, sequence (P11802 whole entry): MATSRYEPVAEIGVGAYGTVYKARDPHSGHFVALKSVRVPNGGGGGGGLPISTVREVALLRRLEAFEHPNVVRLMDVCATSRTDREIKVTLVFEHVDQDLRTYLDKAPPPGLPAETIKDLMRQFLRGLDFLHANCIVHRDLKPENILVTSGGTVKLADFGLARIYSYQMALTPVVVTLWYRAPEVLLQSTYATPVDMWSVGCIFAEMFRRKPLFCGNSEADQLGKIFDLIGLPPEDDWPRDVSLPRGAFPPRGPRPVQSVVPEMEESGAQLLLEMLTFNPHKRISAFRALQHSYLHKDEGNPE
cdk4/D, sequence (P24385 whole entry, further chain): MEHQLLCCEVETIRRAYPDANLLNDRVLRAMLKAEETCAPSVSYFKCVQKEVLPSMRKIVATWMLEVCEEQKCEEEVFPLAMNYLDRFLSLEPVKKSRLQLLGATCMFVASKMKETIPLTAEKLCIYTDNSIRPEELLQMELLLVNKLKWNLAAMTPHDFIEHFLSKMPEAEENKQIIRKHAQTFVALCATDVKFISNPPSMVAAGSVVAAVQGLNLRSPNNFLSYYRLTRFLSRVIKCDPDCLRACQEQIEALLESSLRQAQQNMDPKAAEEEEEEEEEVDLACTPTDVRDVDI

| Compound | IC50 [1] | IC50 ([2]; cdk2/E IC50) | IC50 [3] | IC50 ([4]; cdk2/A IC50) | IC50 [5] | IC50 ([2]; read-out: cdk2/E IC50) | IC50 ([4]; read-out: cdk2/A IC50) | IC50 ([5]; read-out: cdk1/B IC50) |
| --- | --- | --- | --- | --- | --- | --- | --- | --- |
| CC(C)n1c(=O)ccc2cnc(Nc3ccc(S(N)(=O)=O)cc3)nc21 [Example 418, 4-(8-Isopropyl-7-oxo-7,8-dihydro-pyrido[2,3-d]pyrimidin-2-ylamino)-benzenesulfonamide] | 130 nM | 27 nM | 15 nM | 33 nM | 90 nM |  |  |  |
| CCC(CC)n1c(=O)ccc2cnc(Nc3ccc(Cl)c(Cl)c3)nc21 [Example 511, 2-(3,4-Dichloro-phenylamino)-8-(1-ethyl-propyl)-8H-pyrido[2,3-d]pyrimidin-7-one] | 220 nM | 160 nM | 50 nM | 290 nM | 140 nM |  |  |  |
| CCCCn1c(=O)ccc2cnc(Nc3ccccc3)nc21 [Example 364, 8-Butyl-2-phenylamino-8H-pyrido[2,3-d]pyrimidin-7-one] | 240 nM | 60.3 nM | 87.5 nM | 255 nM | 200 nM |  |  |  |
| CCn1c(=O)ccc2cnc(Nc3cc(OC)cc(C(F)(F)F)c3)nc21 [Example 300, 8-Ethyl-2-(3-methoxy-5-trifluoromethyl-phenylamino)-8H-pyrido[2,3-d]pyrimidin-7-one] | 2800 nM | 950 nM | 430 nM | 3900 nM | 620 nM |  |  |  |
| CCC(CC)n1c(=O)ccc2cnc(Nc3ccc(NC(C)=O)c(C)c3)nc21 [Example 513, N-{4-[8-(1-Ethyl-propyl)-7-oxo-7,8-dihydro-pyrido[2,3-d]pyrimidin-2-ylamino]-2-methyl-phenyl}-acetamide] | 830 nM | 330 nM | 110 nM | 630 nM | 160 nM |  |  |  |
| O=c1ccc2cnc(Nc3ccc4nn[nH]c4c3)nc2n1CC(F)(F)F [Example 595, 2-(1H-Benzotriazol-5-ylamino)-8-(2,2,2-trifluoro-ethyl)-8H1-pyrido[2,3-d]pyrimidin-7-one] | 2000 nM | 510 nM | 155 nM | 1450 nM | 2000 nM |  |  |  |
| CCCn1c(=O)ccc2cnc(Nc3ccc4[nH]ccc4c3)nc21 [Example 323, 2-(1H-Indol-5-ylamino)-8-propyl-8H-pyrido[2,3-d]pyrimidin-7-one] | 71.5 nM | 86.5 nM | 53 nM | 250 nM | 82 nM |  |  |  |
| CCCn1c(=O)ccc2cnc(Nc3ccc(N(C)C(C)=O)cc3)nc21 [Example 345, N-Methyl-N-[4-(7-oxo-8-propyl-7,8-dihydro-pyrido[2,3-d]pyrimidin-2-ylamino)-phenyl]-acetamide] | 160 nM | 430 nM | 160 nM | 830 nM | 590 nM |  |  |  |
| CCCCn1c(=O)ccc2cnc(Nc3ccc(F)cc3)nc21 [Example 387, 8-Butyl-2-(4-fluoro-phenylamino)-8H-pyrido[2,3-d]pyrimidin-7-one] | 285 nM | 80 nM | 108 nM | 160 nM | 128 nM |  |  |  |
| CC1Nc2ccc(Nc3ncc4ccc(=O)n(CC5CC5)c4n3)cc2C1C (centres unmarked) [Example 580, 8-Cyclopropylmethyl-2-(2,3-dimethyl-2,3-dihydro-1H-indol-5ylamino)-8H-pyrido[2,3-d]pyrimidin-7-one] | 550 nM | 130 nM | 130 nM | 270 nM | 79 nM |  |  |  |
| O=c1ccc2cnc(Nc3cc(F)cc(F)c3)nc2n1C1CCCC1 [Example 548, 8-Cyclopentyl-2-(3,5-difluoro-phenylamino)-8H-pyrido[2,3-d]pyrimidin-7-one] | 180 nM | 180 nM | 99 nM | 200 nM | 290 nM |  |  |  |
| 8-Cyclopropylmethyl-2-(1H-indazol-6-ylamino)-8H-pyrido[2,3-d]pyrimidin-7-one [Example 583] | 1300 nM |  | 105 nM |  |  | 200 nM | 260 nM | 355 nM |
| CCC(CC)n1c(=O)ccc2cnc(Nc3ccc4[nH]ccc4c3)nc21 [Example 492, 8-(1-Ethyl-propyl)-2-(1H-indol-5-ylamino)-8H-pyrido[2,3-d]pyrimidin-7-one] | 124 nM | 163 nM | 86 nM | 600 nM | 145 nM |  |  |  |
| CCCn1c(=O)ccc2cnc(Nc3cccc(S(N)(=O)=O)c3)nc21 [Example 348, 3-(7-Oxo-8-propyl-7,8-dihydro-pyrido[2,3-d]pyrimidin-2-ylamino)-benzenesulfonamide] | 14 nM | 49 nM | 13 nM | 170 nM | 62 nM |  |  |  |
| Cc1ccc(Nc2ncc3ccc(=O)n(C4CCCC4)c3n2)cc1NS(C)(=O)=O [Example 555, N-[5-(8-Cyclopentyl-7-oxo-7,8-dihydro-pyrido[2,3-d]pyrimidin-2-ylamino)-2-methyl-phenyl]-methanesulfonamide] | 69 nM | 99 nM | 60 nM | 160 nM | 220 nM |  |  |  |
| CCC(C)n1c(=O)ccc2cnc(Nc3ccc(NC(=O)OC(C)(C)C)cc3)nc21 (centres unmarked) [Example 450, [4-(8-sec-Butyl-7-oxo-7,8-dihydro-pyrido[2,3-d]pyrimidin-2-ylamino)-phenyl]-carbamic acid tert-butyl ester] | 113 nM | 130 nM | 64.5 nM | 265 nM | 140 nM |  |  |  |
| CCC(C)n1c(=O)ccc2cnc(Nc3ccc4[nH]nnc4c3)nc21 (centres unmarked) [Example 449, 2-(1H-Benzotriazol-5-ylamino)-8-sec-butyl-8H-pyrido[2,3-d]pyrimidin-7-one] | 128 nM | 17.3 nM | 7.8 nM | 41 nM | 77.5 nM |  |  |  |
| CC(C)n1c(=O)ccc2cnc(Nc3ccc(F)c(C(F)(F)F)c3)nc21 [Example 407, 2-(4-Fluoro-3-trifluoromethyl-phenylamino)-8-isopropyl-8H-pyrido[2,3-d]pyrimidin-7-one] | 980 nM | 680 nM | 56 nM | 460 nM | 320 nM |  |  |  |
| CCCn1c(=O)ccc2cnc(Nc3cc(Cl)cc(Cl)c3)nc21 [Example 319, 2-(3,5-Dichloro-phenylamino)-8-propyl-8H-pyrido[2,3-d]pyrimidin-7-one] | 1550 nM | 161 nM | 106 nM | 855 nM | 159 nM |  |  |  |
| CCCn1c(=O)ccc2cnc(Nc3ccc(F)c(Cl)c3)nc21 [Example 369, 2-(3-Chloro-4-fluoro-phenylamino)-8-propyl-8H-pyrido[2,3-d]pyrimidin-7-one] | 526 nM | 71.9 nM | 85.3 nM | 287 nM | 129 nM |  |  |  |
| O=c1ccc2cnc(Nc3ccc4[nH]c5ccccc5c4c3)nc2n1CC1CC1 [Example 582, 2-(9H-Carbazol-3-ylamino)-8-cyclopropylmethyl-8H-pyrido[2,3-d]pyrimidin-7-one] | 660 nM | 250 nM | 190 nM | 440 nM | 280 nM |  |  |  |
| O=c1ccc2cnc(Nc3ccc(O)c(Cl)c3)nc2n1C1CCCC1 [Example 539, 2-(3-Chloro-4-hydroxy-phenylamino)-8-cyclopentyl-8H-pyrido[2,3-d]pyrimidin-7-one] | 23.5 nM | 14.3 nM | 23.5 nM | 33.5 nM | 28 nM |  |  |  |
| CCC(C)n1c(=O)ccc2cnc(Nc3ccc(C#N)cc3)nc21 (centres unmarked) [Example 474, 4-(8-sec-Butyl-7-oxo-7,8-dihydro-pyrido[2,3-d]pyrimidin-2-ylamino)-benzonitrile] | 210 nM | 140 nM | 41 nM | 110 nM | 240 nM |  |  |  |
| CC(=O)Nc1ccc(Nc2ncc3ccc(=O)n(C(C)C)c3n2)cc1 [Example 414, N-[4-(8-Isopropyl-7-oxo-7,8-dihydro-pyrido[2,3-d]pyrimidin-2-ylamino)-phenyl]-acetamide] | 51 nM | 91 nM | 38.5 nM | 155 nM | 165 nM |  |  |  |
| CCCCn1c(=O)ccc2cnc(Nc3ccc(C)c(Cl)c3)nc21 [Example 400, 8-Butyl-2-(3-chloro-4-methyl-phenylamino)-8H-pyrido[2,3-d]pyrimidin-7-one] | 170 nM | 56 nM | 38 nM | 480 nM | 120 nM |  |  |  |
| CCC(CC)n1c(=O)ccc2cnc(Nc3ccc(O)cc3F)nc21 [Example 495, 8-(1-Ethyl-propyl)-2-(2-fluoro-4-hydroxy-phenylamino)-8H-pyrido[2,3-d]pyrimidin-7-one] | 570 nM | 147 nM | 108 nM | 650 nM | 215 nM |  |  |  |
| CCCCn1c(=O)ccc2cnc(Nc3ccc4[nH]ccc4c3)nc21 [Example 378, 8-Butyl-2-(1H-indol-5-ylamino)-8H-pyrido[2,3-d]pyrimidin-7-one] | 97.5 nM | 86 nM | 96.5 nM | 340 nM | 150 nM |  |  |  |
| CCCCn1c(=O)ccc2cnc(Nc3cccc(S(N)(=O)=O)c3)nc21 [Example 402, 3-(8-Butyl-7-oxo-7,8-dihydro-pyrido[2,3-d]pyrimidin-2-ylamino)-benzenesulfonamide] | 87 nM | 25 nM | 20 nM | 140 nM | 58 nM |  |  |  |

From patent US20040224958A1, “Pyridopyrimidinone derivatives for treatment of neurodegenerative disease” (priority 2000, published 2004)
